Patent publication US20250108053A1, “RIBOCICLIB PHARMACEUTICAL COMPOSITIONS” (Novartis AG, priority 2022, published 2025)

Experiment: Preliminary studies of ribociclib succinate in oral solutions: pH, solubility, preservatives
Text: To achieve a clear solution of ribociclib succinate upon reconstitution, sufficient quantity of acid is needed to adjust the pH of the liquid into an acidic range for ribociclib succinate to completely solubilize. For use in the present invention, suitable solubilizers are in the form of an acid.

[1] = oral solutions of ribociclib succinate

CN(C)C(=O)c1cc2cnc(Nc3ccc(N4CCNCC4)cn3)nc2n1C1CCCC1.O=C(O)CCC(=O)O [ribociclib succinate]
Solubility in basic pH as compared to acidic pH: limited solubility in basic pH
pH range in which a clear solution was achieved (ribociclib succinate in oral solutions): 3.5-4.5

C/C=C/C=C/C(=O)[O-].[K+] [potassium sorbate]
pH required by the preservative [1]: about 3.5

O=C([O-])c1ccccc1.[Na+] [sodium benzoate]
Observation in oral solution formulations with the preservative [1]: precipitation was observed
